Test results as given in US6307108A, “Metal-ligand complex catalyzed processes” (Union Carbide Chemicals & Plastics Technology Corporation, priority 2000, dated 2001).

Test: Heptane/acetonitrile partition (Kpartition) and extraction factor after hydroformylation
Format: physicochemical
Conditions: for Kpartition = amount of product in the heptane phase/amount of product in the acetonitrile phase: Examples 4, 6, 8, Ligand B reaction solution in heptane (2 milliliters) extracted with acetonitrile (2 milliliters), gas chromatography; for Kpartition = amount of material in the heptane phase/amount of material in the acetonitrile phase: room temperature; for extraction factor = Kpartition rhodium/Kpartition product: heptane/acetonitrile
Description: To the vessel was then added an equal volume of acetonitrile. The mixture was vigorously shaken for several minutes then allowed to settle and phase separate. The layers were then analyzed for rhodium content and hydroformylation product. The partition coefficient of the catalyst and the product, as defined bay Kpartition=amount of material in the heptane phase/amount of material in the acetonitrile phase, was then determined for each component.
A portion of the reaction solution (2 milliliters) was extracted with acetonitrile (2 milliliters). The phases were separated and the content of ethyl 11-formylundecanoate product was determined in both phases by gas chromatography.
A portion of the reaction solution (2 milliliters) was extracted with acetonitrile (2 milliliters). The phases were separated, and the content of methyl 11-formylundecanoate product in each phase was determined by gas chromatography.
A portion of the reaction solution (2 milliliters) was extracted with acetonitrile (2 milliliters). The phases were separated and the content of butyl 11-formylundecanoate product was determined in both phases by gas chromatography.
A portion of the reaction solution (5 mL) was diluted with heptane (10 mL), shaken at room temperature under nitrogen with acetonitrle (13 mL) and allowed to settle. Two phases with approximately equal volumes were analyzed for rhodium and the hydroformylation product. The partition coefficient of the catalyst and the product defined as Kpartition=amount of material in the heptane phase/amount of material in the acetonitrile phase was determined for each component.

Compound: CCCCOC(=O)CCCCCCCCCCC=O [butyl 11-formylundecanoate]
- Kpartition = amount of product in the heptane phase/amount of product in the acetonitrile phase: 0.56

Compound: CCOC(=O)CCCCCCCCCCC=O [ethyl 11-formylundecanoate]
- Kpartition = amount of product in the heptane phase/amount of product in the acetonitrile phase: 0.25

Compound: COC(=O)CCCCCCCCCCC=O [methyl 11-formylundecanoate]
- Kpartition = amount of product in the heptane phase/amount of product in the acetonitrile phase: 0.19

Compound: rhodium
- Kpartition = amount of material in the heptane phase/amount of material in the acetonitrile phase (Example 2, Example 1 reaction solution (Ligand A, ethyl 10-undecenoate), equal volume acetonitrile): 170
- extraction factor = Kpartition rhodium/Kpartition product (Example 2): 680
- Kpartition = amount of material in the heptane phase/amount of material in the acetonitrile phase (Example 9, Ligand A, methyl 10-undecenoate, 5 mL reaction solution diluted with heptane (10 mL), acetonitrile (13 mL)): 166
- extraction factor = Kpartition rhodium/Kpartition product (Example 9): 976
